Experimental data published in the NIST ThermoML archive (doi:10.1021/acs.jced.7b00347).

Assay: mn = molality of the nth substance listed, in mol/kg
Conditions: for surface tension liquid-gas: Ring tensiometer; for electrical conductivity: 100 kPa, Liquid, Alternating current cell with electrodes

CCCCCCCC[NH+](CCO)CC(C)O.[Cl-] (centres undefined) + O
Conditions	electrical conductivity [S/m]	surface tension liquid-gas [mN/m]
293.15 K, m1 = 1.867e-05	–	62.99
293.15 K, m1 = 1.87e-05	0.00057	–
293.15 K, m1 = 3.733e-05	–	56.87
293.15 K, m1 = 3.99e-05	0.000652	–
293.15 K, m1 = 6.12e-05	0.000733	–
293.15 K, m1 = 8.25e-05	0.000815	–
293.15 K, m1 = 9.334e-05	–	47.51
293.15 K, m1 = 0.0001038	0.000896	–
293.15 K, m1 = 0.0001251	0.000978	–
293.15 K, m1 = 0.0001464	0.00106	–
293.15 K, m1 = 0.0001676	0.00114	–
293.15 K, m1 = 0.0001867	–	40.52
293.15 K, m1 = 0.0001889	0.00122	–
293.15 K, m1 = 0.0002102	0.0013	–
293.15 K, m1 = 0.0002315	0.00138	–
293.15 K, m1 = 0.0002528	0.00147	–
293.15 K, m1 = 0.000274	0.00155	–
293.15 K, m1 = 0.00028	–	36.28
293.15 K, m1 = 0.0002953	0.00163	–
293.15 K, m1 = 0.0003166	0.00171	–
293.15 K, m1 = 0.0003379	0.00179	–
293.15 K, m1 = 0.0003592	0.00187	–
293.15 K, m1 = 0.0003734	–	33.31
293.15 K, m1 = 0.0003805	0.00196	–
293.15 K, m1 = 0.0004017	0.00204	–
293.15 K, m1 = 0.000423	0.00212	–
293.15 K, m1 = 0.0004436	–	31.33
293.15 K, m1 = 0.0004443	0.0022	–
293.15 K, m1 = 0.0004687	0.00226	–
293.15 K, m1 = 0.0004932	0.00233	–
293.15 K, m1 = 0.0005177	0.00239	–
293.15 K, m1 = 0.0005421	0.00246	–
293.15 K, m1 = 0.0005666	0.00252	–
293.15 K, m1 = 0.000591	0.00259	–
293.15 K, m1 = 0.0006155	0.00266	–
293.15 K, m1 = 0.0006399	0.00272	–
293.15 K, m1 = 0.0006644	0.00279	–
293.15 K, m1 = 0.0006888	0.00285	–
293.15 K, m1 = 0.0007133	0.00292	–
293.15 K, m1 = 0.0007378	0.00298	–
293.15 K, m1 = 0.0007622	0.00305	–
293.15 K, m1 = 0.0007867	0.00312	–
293.15 K, m1 = 0.0008111	0.00318	–
293.15 K, m1 = 0.0008356	0.00325	–
293.15 K, m1 = 0.00086	0.00331	–
293.15 K, m1 = 0.0008845	0.00338	–
293.15 K, m1 = 0.0009089	0.00345	–
293.15 K, m1 = 0.0009334	0.00352	30.74
293.15 K, m1 = 0.001867	–	30.15
293.15 K, m1 = 0.0028	–	29.89
293.15 K, m1 = 0.003733	–	30
298.15 K, m1 = 1.867e-05	–	58.01
298.15 K, m1 = 1.87e-05	0.00071	–
298.15 K, m1 = 3.733e-05	–	52.03
298.15 K, m1 = 3.79e-05	0.000793	–
298.15 K, m1 = 5.71e-05	0.000877	–
298.15 K, m1 = 7.64e-05	0.00096	–
298.15 K, m1 = 9.334e-05	–	43.52
298.15 K, m1 = 9.56e-05	0.00104	–
298.15 K, m1 = 0.0001148	0.00113	–
298.15 K, m1 = 0.000134	0.00121	–
298.15 K, m1 = 0.0001533	0.00129	–
298.15 K, m1 = 0.0001725	0.00138	–
298.15 K, m1 = 0.0001867	–	36.81
298.15 K, m1 = 0.0001917	0.00146	–
298.15 K, m1 = 0.0002109	0.00154	–
298.15 K, m1 = 0.0002302	0.00163	–
298.15 K, m1 = 0.0002494	0.00171	–
298.15 K, m1 = 0.0002686	0.00179	–
298.15 K, m1 = 0.00028	–	33.44
298.15 K, m1 = 0.0002879	0.00188	–
298.15 K, m1 = 0.0003071	0.00196	–
298.15 K, m1 = 0.0003263	0.00204	–
298.15 K, m1 = 0.0003455	0.00213	–
298.15 K, m1 = 0.0003648	0.00221	–
298.15 K, m1 = 0.000384	0.0023	–
298.15 K, m1 = 0.0004032	0.00238	–
298.15 K, m1 = 0.0004088	–	30.57
298.15 K, m1 = 0.0004364	0.00249	–
298.15 K, m1 = 0.0004695	0.0026	–
298.15 K, m1 = 0.0005026	0.00271	–
298.15 K, m1 = 0.0005358	0.00282	–
298.15 K, m1 = 0.0005689	0.00294	–
298.15 K, m1 = 0.000602	0.00305	–
298.15 K, m1 = 0.0006352	0.00316	–
298.15 K, m1 = 0.0006683	0.00327	–
298.15 K, m1 = 0.0007014	0.00338	–
298.15 K, m1 = 0.0007346	0.00349	–
298.15 K, m1 = 0.0007677	0.00361	–
298.15 K, m1 = 0.0008009	0.00372	–
298.15 K, m1 = 0.000834	0.00383	–
298.15 K, m1 = 0.0008671	0.00394	–
298.15 K, m1 = 0.0009003	0.00405	–
298.15 K, m1 = 0.0009334	0.00417	29.9
298.15 K, m1 = 0.001867	–	29.43
298.15 K, m1 = 0.0028	–	29
298.15 K, m1 = 0.003733	–	28.91
303.15 K, m1 = 1.867e-05	–	53.53
303.15 K, m1 = 1.87e-05	0.00091	–
303.15 K, m1 = 3.73e-05	0.00101	–
303.15 K, m1 = 3.733e-05	–	47.58
303.15 K, m1 = 5.6e-05	0.0011	–
303.15 K, m1 = 7.47e-05	0.0012	–
303.15 K, m1 = 9.33e-05	0.00129	–
303.15 K, m1 = 9.334e-05	–	40.08
303.15 K, m1 = 0.000112	0.00139	–
303.15 K, m1 = 0.0001307	0.00149	–
303.15 K, m1 = 0.0001493	0.00158	–
303.15 K, m1 = 0.000168	0.00168	–
303.15 K, m1 = 0.0001867	0.00177	34.17
303.15 K, m1 = 0.0002053	0.00187	–
303.15 K, m1 = 0.000224	0.00197	–
303.15 K, m1 = 0.0002427	0.00206	–
303.15 K, m1 = 0.0002614	0.00216	–
303.15 K, m1 = 0.00028	0.00225	31.17
303.15 K, m1 = 0.0002987	0.00235	–
303.15 K, m1 = 0.0003174	0.00245	–
303.15 K, m1 = 0.000336	0.00254	–
303.15 K, m1 = 0.0003472	–	29.47
303.15 K, m1 = 0.0003547	0.00264	–
303.15 K, m1 = 0.0003734	0.00273	–
303.15 K, m1 = 0.000392	0.00283	–
303.15 K, m1 = 0.0004166	0.00292	–
303.15 K, m1 = 0.0004412	0.00302	–
303.15 K, m1 = 0.000448	–	29.31
303.15 K, m1 = 0.0004658	0.00311	–
303.15 K, m1 = 0.0004905	0.00321	–
303.15 K, m1 = 0.0005151	0.0033	–
303.15 K, m1 = 0.0005397	0.0034	–
303.15 K, m1 = 0.0005643	0.00349	–
303.15 K, m1 = 0.0005889	0.00359	–
303.15 K, m1 = 0.0006135	0.00368	–
303.15 K, m1 = 0.0006381	0.00378	–
303.15 K, m1 = 0.0006627	0.00387	–
303.15 K, m1 = 0.0006873	0.00397	–
303.15 K, m1 = 0.0007119	0.00406	–
303.15 K, m1 = 0.0007365	0.00416	–
303.15 K, m1 = 0.0007611	0.00425	–
303.15 K, m1 = 0.0007857	0.00435	–
303.15 K, m1 = 0.0008104	0.00444	–
303.15 K, m1 = 0.000835	0.00454	–
303.15 K, m1 = 0.0008596	0.00463	–
303.15 K, m1 = 0.0008842	0.00473	–
303.15 K, m1 = 0.0009088	0.00482	–
303.15 K, m1 = 0.0009334	0.00492	28.79
303.15 K, m1 = 0.001867	–	28.54
303.15 K, m1 = 0.0028	–	28.22
303.15 K, m1 = 0.003733	–	28.02
308.15 K, m1 = 1.867e-05	–	51.25
308.15 K, m1 = 1.87e-05	0.00111	–
308.15 K, m1 = 3.733e-05	–	45.75
308.15 K, m1 = 4.28e-05	0.00126	–
308.15 K, m1 = 6.7e-05	0.00141	–
308.15 K, m1 = 9.11e-05	0.00156	–
308.15 K, m1 = 9.334e-05	–	38.42
308.15 K, m1 = 0.0001152	0.00171	–
308.15 K, m1 = 0.0001394	0.00186	–
308.15 K, m1 = 0.0001635	0.00201	–
308.15 K, m1 = 0.0001867	–	32.93
308.15 K, m1 = 0.0001877	0.00216	–
308.15 K, m1 = 0.0002118	0.00231	–
308.15 K, m1 = 0.000236	0.00246	–
308.15 K, m1 = 0.0002601	0.00261	–
308.15 K, m1 = 0.0002842	0.00276	–
308.15 K, m1 = 0.0002949	–	29.72
308.15 K, m1 = 0.0003084	0.00291	–
308.15 K, m1 = 0.0003325	0.00306	–
308.15 K, m1 = 0.0003472	–	28.63
308.15 K, m1 = 0.0003567	0.00321	–
308.15 K, m1 = 0.0003808	0.00336	28.46
308.15 K, m1 = 0.0004099	0.00348	–
308.15 K, m1 = 0.000439	0.0036	–
308.15 K, m1 = 0.0004681	0.00373	–
308.15 K, m1 = 0.0004972	0.00385	–
308.15 K, m1 = 0.0005262	0.00397	–
308.15 K, m1 = 0.0005553	0.0041	–
308.15 K, m1 = 0.0005844	0.00422	–
308.15 K, m1 = 0.0006135	0.00434	–
308.15 K, m1 = 0.0006426	0.00447	–
308.15 K, m1 = 0.0006716	0.00459	–
308.15 K, m1 = 0.0007007	0.00471	–
308.15 K, m1 = 0.0007298	0.00483	–
308.15 K, m1 = 0.0007589	0.00496	–
308.15 K, m1 = 0.000788	0.00508	–
308.15 K, m1 = 0.0008171	0.0052	–
308.15 K, m1 = 0.0008461	0.00533	–
308.15 K, m1 = 0.0008752	0.00545	–
308.15 K, m1 = 0.0009043	0.00557	–
308.15 K, m1 = 0.0009334	0.0057	27.95
308.15 K, m1 = 0.001867	–	27.78
308.15 K, m1 = 0.0028	–	27.44
308.15 K, m1 = 0.003733	–	27.36
